Test: Inhibition of rat human chimera TRPV1 channel expressed in CHO cells
Format: cell-based

Compound	IC50 [nM]	pIC50
CC(C)(C)c1ccc(/C(=C\C(=O)Nc2ccc3c(c2)OCCO3)c2cccc(N)c2)cc1	331	6.48
O=C(/C=C/c1cccc2ccccc12)Nc1ccc2c(c1)OCCO2	643	6.19
O=C(/C=C/c1ccccc1)Nc1ccc2c(c1)OCCO2	5100	5.29
CN(C)C[C@@H]1COc2cc(NC(=O)/C=C/c3ccc(C(C)(C)C)cc3)ccc2O1	665	6.18
CC(C)(C)c1ccc(/C=C/C(=O)Nc2ccc3c(c2)OCCO3)nc1	1060	5.97
O=C(/C=C/c1ccc([N+](=O)[O-])cc1)Nc1ccc2c(c1)OCCO2	583	6.23
CC(C)(C)c1ccc(/C=C/C(=O)Oc2ccc3c(c2)OCCO3)cc1	868	6.06
CC(C)(C)c1cccc(/C=C/C(=O)Nc2ccc3c(c2)OCCO3)c1	548	6.26
O=C(/C=C/c1ccc(Br)cc1)Nc1ccc2c(c1)OCCO2	339	6.47
O=C(/C=C/c1ccc2ccccc2c1)Nc1ccc2c(c1)OCCO2	740	6.13
O=C(/C=C/c1ccc(-c2ccccc2)cc1)Nc1ccc2c(c1)OCCO2	> 40000	4.4
O=C(/C=C/c1cccc(Br)c1)Nc1ccc2c(c1)OCCO2	404	6.39
CCC(C)/C(=C\c1ccc(C(C)(C)C)cc1)C(=O)Nc1ccc2c(c1)OCCO2 (stereo not given)	545	6.26
CC(C)(C)c1ccc(/C=C(/C(=O)Nc2ccc3c(c2)OCCO3)C2CCCC2)cc1	15400	4.81
CN(C(=O)/C=C/c1ccc(C(C)(C)C)cc1)c1ccc2c(c1)OCCO2	19400	4.71
CC(C)(C)c1ccc(/C(I)=C/C(=O)Nc2ccc3c(c2)OCCO3)cc1	343	6.46
O=C(/C=C/c1ccc(Cl)c(Cl)c1)Nc1ccc2c(c1)OCCO2	449	6.35
CC(C)(C)c1ccc(/C=C\C(=O)Nc2ccc3c(c2)OCCO3)cc1	1900	5.72
CC(C)(C)c1ccc(C(=O)CC(=O)Nc2ccc3c(c2)OCCO3)cc1	582	6.23
CC/C(=C\c1ccc(C(C)(C)C)cc1)C(=O)Nc1ccc2c(c1)OCCO2	501	6.3
CC(C)(C)c1ccc(/C=C/CNc2ccc3c(c2)OCCO3)cc1	> 40000	4.4
O=C(/C=C/c1ccc(C(F)(F)F)nc1)Nc1ccc2c(c1)OCCO2	1070	5.97
O=C(/C=C/c1cccc(OC(F)(F)F)c1)Nc1ccc2c(c1)OCCO2	1620	6.79
CC(C)(C)c1ccc(/C=C/C(=O)Nc2ccc3c(c2)OCCO3)cc1.Cl	550	6.26
C=Cc1ccc(/C=C/C(=O)Nc2ccc3c(c2)OCCO3)cc1	3520	5.45
CC(C)(C)c1ccc(/C=C/C(=S)Nc2ccc3c(c2)OCCO3)cc1	392	6.41
CC(C)(C)c1ccc(/C=C/C(=O)Nc2ccc3c(c2)OC[C@@H](CNCO)O3)cc1	690	6.16
COc1ccccc1NC(=O)/C=C/c1ccc(C(C)(C)C)cc1	859	6.07
CC(C)(C)c1ccc(/C=C(/C(=O)Nc2ccc3c(c2)OCCO3)c2ccccc2)cc1	10700	4.97

These reach a lower IC50. Values come first.

IC50 [nM]	pIC50	Compound
293	6.53	Cc1ccc(/C=C/C(=O)Nc2ccc3c(c2)OCCO3)cc1
279	6.55	Cc1ccccc1/C(=C/C(=O)Nc1ccc2c(c1)OCCO2)c1ccc(C(C)(C)C)cc1
247	6.61	CCc1ccc(/C=C/C(=O)Nc2ccc3c(c2)OCCO3)cc1
247	6.61	Cc1ccc(C(=CC(=O)Nc2ccc3c(c2)OCCO3)c2ccc(C)cc2)cc1
230	6.64	COc1ccc(NC(=O)/C=C/c2ccc(C(C)(C)C)cc2)cc1OC
183	6.74	CC(C)(C)c1ccc(/C=C/C(=O)Nc2ccc3c(c2)OCCO3)cn1
173		CC(C)(C)c1ccc(/C=C/C(=O)Nc2ccc3c(c2)NCCO3)cc1
155	6.81	COc1cccc(/C(=C/C(=O)Nc2ccc3c(c2)OCCO3)c2ccc(C(C)(C)C)cc2)c1
153	6.82	COc1ccccc1/C(=C/C(=O)Nc1ccc2c(c1)OCCO2)c1ccc(C(C)(C)C)cc1
144	6.84	CC(C)(C)c1ccc(/C(=C/C(=O)Nc2ccc3c(c2)OCCO3)c2cccnc2)cc1
120	6.92	O=C(/C=C/c1ccc(C(F)(F)F)cc1)Nc1ccc2c(c1)OCCO2
98	7.01	CC(C)c1ccc(/C=C/C(=O)Nc2ccc3c(c2)OCCO3)cc1
93	7.03	Cc1ccc(/C(=C/C(=O)Nc2ccc3c(c2)OCCO3)c2ccc(C(C)(C)C)cc2)cc1
82	7.09	C/C(=C\C(=O)Nc1ccc2c(c1)OCCO2)c1ccc(C(C)(C)C)cc1
61	7.22	O=C(C=C(c1ccc(Br)cc1)c1ccc(Br)cc1)Nc1ccc2c(c1)OCCO2
59	7.23	Cc1cccc(/C(=C/C(=O)Nc2ccc3c(c2)OCCO3)c2ccc(C(C)(C)C)cc2)c1

IC50 [nM]	pIC50	Compound
57	7.24	COc1cccc(NC(=O)/C=C/c2ccc(C(C)(C)C)cc2)c1
55		CC(C)(C)c1ccc(/C=C/C(=O)Nc2ccc3c(c2)NCCC3)cc1
48	7.32	CC(C)(C)c1ccc(/C(=C/C(=O)Nc2ccc3c(c2)OCCO3)c2ccccc2)cc1
48	7.32	CCC(C)(C)c1ccc(/C=C/C(=O)Nc2ccc3c(c2)OCCO3)cc1
47	7.33	CC(C)(C)c1ccc(/C(=C/C(=O)Nc2ccc3c(c2)OCCO3)c2ccc(C(F)(F)F)cc2)cc1
46	7.34	COc1ccc(/C(=C/C(=O)Nc2ccc3c(c2)OCCO3)c2ccc(C(C)(C)C)cc2)cc1
42	7.37	CC(C)(C)c1ccc(/C(=C\C(=O)Nc2ccc3c(c2)OCCO3)c2ccc(Cl)cc2)cc1
41	7.38	CC(C)C/C(=C\C(=O)Nc1ccc2c(c1)OCCO2)c1ccc(C(C)(C)C)cc1
33	7.48	CC(C)(C)c1ccc(/C=C/C(=O)Nc2cccc(C(N)=O)c2)cc1
21	7.69	CC(C)(C)c1ccc(/C(=C/C(=O)Nc2ccc3c(c2)OCCO3)Cc2ccccc2)cc1
19		CC(C)(C)c1ccc(/C=C/C(=O)Nc2ccc3cc[nH]c3c2)cc1
18		CC(C)(C)c1ccc(/C=C/C(=O)Nc2ccc3oc(=O)cnc3c2)cc1
3		CC(C)(C)c1ccc(/C=C/C(=O)Nc2ccc3cccnc3c2)cc1
2	8.78	O=C(/C=C/c1ccc(C(F)(F)F)nc1N1CCOCC1)Nc1ccc2cccnc2c1
1	8.94	O=C(/C=C/c1ccc(C(F)(F)F)nc1N1CCCCC1)Nc1ccc2cccnc2c1

Source: ChEMBL document CHEMBL1138244, “Three-dimensional quantitative structure-activity relationships and activity predictions of human TRPV1 channel antagonists: comparative molecular field analysis and comparative molecular similarity index analysis of cinnamides” (J Med Chem, 2007)
